Reference: US20170252433A1, “PSMA-RELATED THERAPIES” (Memorial Sloan Kettering Cancer Center, priority 2014, published 2017)

Tests used:
LNCaP and PC3-PSMA cells = test: Total secreted prostaglandins; type: cell-based, human; settings: 5 μM, 48 h, FIG. 5c-d
Description: LNCaP cells that have a functional AR pathway were obtained from ATCC (Manassas, Va.) and grown to confluence. […] The levels of nitric oxide attributed to nitric oxide synthase's activity and the concentration of total secreted prostaglandins were quantified with the corresponding kits purchased from Cayman Chemicals (Ann Arbor, Mich.).
Furthermore, it was examined whether PSMA inhibition affects the activity of nitric oxide synthase and the levels of prostaglandins, since both Akt and Ca+2 regulate these processes. The activity of nitric oxide synthase was assessed by quantifying the sample's total nitrate levels with a kit from Cayman Chemicals, whereas the levels of total prostaglandins secreted in the cell's medium were measured with the total prostaglandin kit from Cayman Chemicals. Inhibition of PSMA was performed with a PSMA inhibitor (5 μM) at 48 h at 37° C., 5% CO2.

[1] = tested on: PSMA-expressing prostate cancer cells (LNCaP-wt, PC3-hPSMA) and PC3-wt; test: Cytoplasmic calcium quantification (Fluo4 assay); type: cell-based, human
Method: Cells were seeded at a density of 10,000 per well on a 96-well plate and grown overnight. Loading of the calcium-sensing dye Fluo4 (Life Technologies, Calrsbad, Calif.) was performed according to the manufacturer's instructions. Where indicated the cells were treated with thapsigargin (1 μM, Tocris, Minneapolis, Minn.), L-Quisqualic acid (110 μM, Tocris), 3,5-DHPG (0.67 mM, Tocris), L-AP3 (125 μM, Tocris), U73122 (50 μM, Tocris), and 2-PMPA (100 μM, Tocris) immediately before measuring calcium levels, with a SpectraMax M5 plate reader (Molecular Devices, Sunnyvale, Calif.).
The effect of PSMA expression on calcium homeostasis in prostate cancer cell lines was evaluated using the fluorimetric Fluo4 assay kit (Invitrogen), according to the supplier's instructions. The plate was excited at 490 nm, and fluorescence emission was monitored at 520 nm with the SpectraMax M5 plate reader (Molecular Devices). […] To examine calcium accumulation in the cytoplasm, the cells were treated with thapsigargin (1 μM, Tocris) immediately prior to taking measurements with the plate reader. […] Furthermore, we investigated whether PSMA facilitates calcium signaling via the mGluR Group I receptors through its enzymatic activity. The cells were treated with either L-Quisqualic acid (110 μM; mGluR I agonist, Tocris), L-AP3 (125 μM; mGluR I antagonist, Tocris) or a PSMA inhibitor (100 μM, Tocris), immediately prior to taking calcium measurements.

LNCaP-wt cells [2] = test: Human phospho-kinase array (kinome profiling); type: cell-based; settings: 48 h, 5 μM, FIG. 4a
Method: (§1) CAMKK2, AMPKα and AKT antibodies were purchased from Cell Signaling (Danvers, Mass.). Cells were grown to confluence and treated with 2-PMPA (5 μM, Tocris) for 48 h. The phosphorylation status of proteins of interest was determined with an isoelectric-focusing instrument (NanoPro1000, Protein Simple, Santa Clara, Calif.), where the samples were prepared and analyzed according to the supplier's guidelines. Determination of site-specific phosphorylation of key proteins was performed with a human phosphor-kinase array (ARY003, R&D Systems, Minneapolis, Minn.), according to the product's instructions.
Considering that PSMA inhibition affected the phosphorylation of some key kinases, a human kinome-profiling array from R&D Systems was utilized to obtain a wider view of other kinases being regulated by this protein. LNCaP-wt cells were grown in the presence of a PSMA inhibitor (48 h, 5 μM) and PC3-PSMA cells were grown under puromycin-induced selection. Control cells included LNCaP-wt and PC3-wt cells grown for 48 h in complete RPMI media. The cells were lysed and processed according to the array's protocol, and the array was performed according to its supplier's guideline. Imaging of the array's membranes was performed after film exposure in the presence of a chemiluniescent substrate and HRP-conjugated detecting antibodies, processed in a dark room.

nitric oxide synthase = test: Nitric oxide synthase activity (total nitrate levels); type: cell-based, human; settings: 5 μM, 48 h
Method: (§2) Gene expression array was performed after TRIzol-based RNA extraction on an U133A 2.0 gene array (Affymetrix, Santa Clara, Calif.). The output of the androgen receptor (AR) pathway was assessed by measuring the levels of prostate specific antigen (PSA). LNCaP cells that have a functional AR pathway were obtained from ATCC (Manassas, Va.) and grown to confluence. Then they were treated for 48 h with 2-PMPA (5 μM) for 48 h, followed by screening of the culture medium for secreted PSA with the DELFIA PSA assay (Perkin Elmer, Waltham, Mass.). The levels of nitric oxide attributed to nitric oxide synthase's activity and the concentration of total secreted prostaglandins were quantified with the corresponding kits purchased from Cayman Chemicals (Ann Arbor, Mich.). Alterations in energy production due to signaling changes were determined through quantification of the intracellular NAD+ and ATP lelels, using the NAD assay from Cayman Chemicals (Ann Arbor, Mich.) and the StayBrite ATP kit from Biovision (Milpitas, Calif.).
Furthermore, it was examined whether PSMA inhibition affects the activity of nitric oxide synthase and the levels of prostaglandins, since both Akt and Ca+2 regulate these processes. […]

LNCaP-wt cells [3] = test: Androgen receptor pathway output: secreted PSA (DELFIA PSA assay); type: cell-based, human; settings: 5 μM, 48 h
Method: as §2
Since PSMA regulates Akt phosphorylation, it was investigated whether inhibition of PSMA and subsequent downregulation of Akt activity affected the status of the androgen receptor (AR) pathway. […]

[4] = tested on: phosphorylation of CAMKK2, AMPKα and AKT in PSMA-expressing and PSMA-negative (PC3-wt) cells; test: Phosphorylation status by isoelectric focusing (NanoPro); type: cell-based, human; settings: for CAMKK2 phosphorylation: 5 μM, 48 h, FIG. 3b
Method: as §1
Phosphorylation state of calcium dependent downstream effectors was analyzed. Since activation of metabotropic glutamate receptors and their associated G proteins can lead to phosphorylation of downstream effectors, phosphorylation levels of key proteins relative to PSMA expression was examined. The NanoPro system from Protein Simple was used, which allowed the determination of global phosphorylation status based on the isoelectric point changes of the target protein. The samples were prepared according to the supplier's guidelines, following lysis of the cells with the NanoPro lysis buffer. All antibodies used were purchased from Cell Signaling, detecting the total protein levels of a target protein. […] (FIG. 3b). […] It has been previously shown that either G protein-activated PI3K or calcium-activated mTORC2 phosphorylating PAK can cause Akt's phosphorylation. All graphs depict mean±s.e.m.

## O=C(O)CCC(CP(=O)(O)O)C(=O)O (stereo not drawn) [2-PMPA]
LNCaP and PC3-PSMA cells
  total levels of secreted prostaglandins: decreased
[1]; PSMA inhibition compared with Phospholipase C inhibitor U73122 50 μM, FIG. 1d
  cytoplasmic calcium levels: reduction in calcium levels
[1]; PSMA-expressing cells, PSMA inhibitor 100 μM, L-AP3 125 μM, FIG. 1c
  cytoplasmic calcium levels: lowered calcium levels
LNCaP-wt cells [2]
  phosphorylation of many proteins including TOR, p27, and Src: decreased
Nitric oxide synthase; PC3-wt cells that do not express PSMA
  nitrate concentration: did not affect nitrate concentration
Nitric oxide synthase; PSMA-expressing cells, FIG. 5c-d
  nitric oxide synthase activity (nitrate levels): decreased nitric oxide synthase activity
LNCaP-wt cells [3]
  PSA mRNA levels: did not affect PSA's mRNA levels
LNCaP-wt cells [3]; FIG. 5a
  PSA levels in culturing medium: increased PSA levels
[4]; PSMA-expressing cells
  CAMKK2 phosphorylation: decreased CAMKK2's phosphorylation
[4]; PSMA-positive cells, FIG. 3c
  phosphorylation of AMPKα: impaired
[4]; PSMA-positive cells, FIG. 3d
  phosphorylation of AKT: impaired
[4]; cells lacking PSMA
  CAMKK2 phosphorylation: no effect
